Calls of active or inactive are those of the source. No cut-off for these calls is given here.
What was measured:
[1] = tested on: MDA-MB-231; test: Antitumor activity against human MDA-MB-231 cells xenografted in BALB/c mouse assessed as tumor growth inhibition measured at 2.5 mg/kg, ip administered every other day for 20 days; assay type: functional; details: MDA-MB-231, ip, 480 h, time 20 day, read-out: TGI
[2] = tested on: MDA-MB-231; test: Induction of cell cycle arrest in human MDA-MB-231 cells assessed as accumulation at G2/M phase at 1 uM incubated for 24 hrs by flow cytometry (reference value: 20.4%); assay type: functional
[3] = tested on: MDA-MB-231; test: Induction of cell cycle arrest in human MDA-MB-231 cells assessed as accumulation at G0/G1 phase at 0.5 uM incubated for 24 hrs by flow cytometry (reference value: 56.6%); assay type: functional
[4] = tested on: MDA-MB-231; test: Induction of cell cycle arrest in human MDA-MB-231 cells assessed as accumulation at G0/G1 phase at 1 uM incubated for 24 hrs by flow cytometry (reference value: 56.6%); assay type: functional
[5] = tested on: MDA-MB-231; test: Induction of cell cycle arrest in human MDA-MB-231 cells assessed as accumulation at G2/M phase at 0.5 uM incubated for 24 hrs by flow cytometry (reference value: 20.4%); assay type: functional
[6] = tested on: Calf thymus DNA; test: Binding affinity to duplex calf thymus DNA assessed as dissociation constant by fluorescence spectroscopy; assay type: nucleic-acid assay, Bos taurus
[7] = tested on: MDA-MB-231; test: Induction of DNA damage in human MDA-MB-231 cells assessed as increase in gammaH2AX incubated for 24 hrs by western blotting analysis; assay type: functional, cell-based
[8] = tested on: MDA-MB-231; test: Induction of cell cycle arrest in human MDA-MB-231 cells assessed as accumulation at sub-G1 phase at 0.5 uM incubated for 24 hrs by flow cytometry (reference value: 2.8%); assay type: functional
[9] = tested on: Quadruplex DNA; test: Binding affinity to c-myc G4-quadruplex DNA (unknown origin) at 1 uM in presence of ct-DNA by fluorescence spectroscopy; assay type: nucleic-acid assay
[10] = tested on: MDA-MB-231; test: Inhibition of c-Myc gene transcription expression in human MDA-MB-231 cells at 0.5 to 2 uM incubated for 24 hrs by RT-PCR analysis; assay type: functional, cell-based; details: dose 0.5-2 µM
[11] = target: Quadruplex DNA; test: Binding affinity to c-myc G4-quadruplex DNA (unknown origin) assessed as dissociation constant by fluorescence spectroscopy; assay type: nucleic-acid assay
[12] = tested on: CA46; test: Downregulation of c-MYC transcription expression in human CA46 cells incubated for 24 hrs by RT-PCR analysis; assay type: functional, cell-based
[13] = target: T1, DNA topoisomerase 1 (Homo sapiens) (UniProt P11387); test: Poison activity at human topoisomerase 1 assessed as formation of cleavage complex using pHOT-1 DNA as substrate incubated for 30 mins by agarose gel electrophoresis
T1 sequence (whole entry): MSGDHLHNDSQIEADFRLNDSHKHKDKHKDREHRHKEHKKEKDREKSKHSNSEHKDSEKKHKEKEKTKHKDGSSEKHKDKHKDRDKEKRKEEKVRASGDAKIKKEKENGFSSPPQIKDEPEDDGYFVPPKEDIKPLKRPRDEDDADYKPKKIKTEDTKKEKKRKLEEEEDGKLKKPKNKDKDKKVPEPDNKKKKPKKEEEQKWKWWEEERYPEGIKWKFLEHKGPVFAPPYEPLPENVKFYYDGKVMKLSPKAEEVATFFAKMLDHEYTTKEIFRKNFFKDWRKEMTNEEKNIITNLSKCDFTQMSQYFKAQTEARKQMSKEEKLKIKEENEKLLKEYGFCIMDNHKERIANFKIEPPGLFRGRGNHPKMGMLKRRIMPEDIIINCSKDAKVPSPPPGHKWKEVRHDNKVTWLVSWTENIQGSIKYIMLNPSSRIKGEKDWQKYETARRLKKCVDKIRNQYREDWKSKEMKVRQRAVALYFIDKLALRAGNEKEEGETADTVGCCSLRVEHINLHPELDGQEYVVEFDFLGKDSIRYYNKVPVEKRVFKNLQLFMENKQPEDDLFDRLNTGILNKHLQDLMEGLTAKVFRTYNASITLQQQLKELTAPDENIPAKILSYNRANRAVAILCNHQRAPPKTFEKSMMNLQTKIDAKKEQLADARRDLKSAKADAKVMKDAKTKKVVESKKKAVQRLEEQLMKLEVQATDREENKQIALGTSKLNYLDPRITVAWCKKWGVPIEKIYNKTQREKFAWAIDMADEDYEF

[14] = target: T1, DNA topoisomerase 1 (Homo sapiens); test: Inhibition of human topoisomerase 1 assessed as DNA intercalation at 1.2 to 10 uM using relaxed pHOT-1 DNA as substrate preincubated with DNA for 10 mins followed by enzyme addition and measured after 30 mins by agarose gel electrophoresis; details: dose 1.2-10 µM, time 40.0 min
[15] = tested on: Quadruplex DNA; test: Stabilization of c-Myc G-quadruplex DNA (unknown origin ) assessed as increase in melting temperature at 6 uM by CD spectroscopy; assay type: nucleic-acid assay
[16] = tested on: MDA-MB-231; test: Induction of cell cycle arrest in human MDA-MB-231 cells assessed as accumulation at sub-G1 phase at 2 uM incubated for 24 hrs by flow cytometry (reference value: 2.8%); assay type: functional
[17] = tested on: MDA-MB-231; test: Inhibition of BCL-2 gene transcription expression in human MDA-MB-231 cells at 0.5 to 2 uM incubated for 24 hrs by RT-PCR analysis; assay type: functional, cell-based; details: dose 0.5-2 µM
[18] = tested on: MDA-MB-231; test: Inhibition of cell migration in human MDA-MB-231 cells incubated for 24 hrs by wound scrape assay; assay type: functional, cell-based
[19] = Toxicity in human MDA-MB-231 cells xenografted BALB/c mouse assessed as body weight loss at 2.5 to 5 mg/kg, ip administered every other day for 20 days; assay type: organism-based; details: in vivo, 480 h, dose 2.5-5 mg/kg, time 20 day
[20] = tested on: MDA-MB-231; test: Anticlonogenic activity against human MDA-MB-231 cells assessed as inhibition of colony formation incubated for 7 days by crystal violet staining based assay; assay type: functional, cell-based; details: time 7.0 day
[21] = tested on: MDA-MB-231; test: Induction of cell cycle arrest in human MDA-MB-231 cells assessed as accumulation at sub-G1 phase at 1 uM incubated for 24 hrs by flow cytometry (reference value: 2.8%); assay type: functional
[22] = tested on: Quadruplex DNA; test: Inhibition of c-myc G4-quadruplex DNA transcriptional activity in human MDA-MB-231 cells incubated for 24 hrs by RT-PCR analysis; assay type: cell-based
[23] = tested on: MDA-MB-231; test: Inhibition of VEGF gene transcription expression in human MDA-MB-231 cells at 0.5 to 2 uM incubated for 24 hrs by RT-PCR analysis; assay type: functional, cell-based; details: dose 0.5-2 µM
[24] = tested on: Quadruplex DNA; test: Binding affinity to c-myc G4-quadruplex DNA Pu22 (unknown origin) by NMR spectroscopy; assay type: nucleic-acid assay
[25] = tested on: Quadruplex DNA; test: Binding affinity to c-myc G4-quadruplex DNA (unknown origin) by UV-Vis spectrophotometric method; assay type: nucleic-acid assay
[26] = tested on: Calf thymus DNA; test: Binding affinity to duplex calf thymus DNA assessed as dissociation constant; assay type: nucleic-acid assay, Bos taurus
[27] = tested on: MDA-MB-231; test: Antitumor activity against human MDA-MB-231 cells xenografted in ip dosed BALB/c mouse assessed as tumor growth inhibition administered every other day for 20 days; assay type: functional, organism-based; details: dose 2.5-5 […], time 20.0 day
[28] = tested on: CA46; test: Downregulation of EXON 1 transcription in human CA46 cells incubated for 24 hrs by RT-PCR analysis; assay type: functional, cell-based
[29] = Antiproliferative activity against human BJ fibroplast assessed as inhibition of cell growth incubated for 24 hrs by CCK8 assay; details: Fibroblast
[30] = tested on: MDA-MB-231; test: Antiproliferative activity against human MDA-MB-231 cells assessed as inhibition of cell growth incubated for 24 hrs by CCK8 assay; assay type: functional, cell-based

**Q.** Which results are given for COc1ccc2nc3c4ccc(N5CCN(C)CC5)cc4c4cc(N5CCN(C)CC5)ccc4c3nc2c1?
**A.** inhibition in vivo at 2.5 mg/kg [1]: 52%; Activity [2]: 24.9%; Activity [3]: 54.4%; Activity [4]: 50%; Activity [5]: 21.7%; Kd [6]: 12.7 µM; Activity [7]: Active; Activity [8]: 3.1%; Activity [9]: Active; inhibition [10]: Active; Kd [11]: 0.6 µM; Activity [12]: inactive; Activity [13]: inactive; inhibition [14]: Active; Tm [15]: 30 °C; Activity [16]: 20.2%; inhibition [17]: inactive; inhibition [18]: Active; Activity [19]: Non-Toxic; Activity [20]: Dose-Dependent Effect; Activity [21]: 4.7%; inhibition [22]: Active; inhibition [23]: inactive; Activity [24]: Active; Activity [25]: Active; Kd [26]: 8.3 µM; Activity [27]: Dose-Dependent Effect; Activity [28]: Active; IC50 [29]: 5.6 µM; Activity [30]: Dose-Dependent Effect

Reference: ChEMBL document CHEMBL5032491, “New Dibenzoquinoxalines Inhibit Triple-Negative Breast Cancer Growth by Dual Targeting of Topoisomerase 1 and the c-MYC G-Quadruplex” (J Med Chem, 2021)
